In brackets after ≈: the same amount, converted by molar mass. Read-outs that look alike come from different tables or passages of the source.
How the values were obtained:
[1] = tested on: B. anthracis Sterne strain; test: microbe, parasite or virus in culture; type: cell-based; details: Bacillus anthracis, 16 h, read-out: MIC B. anthracis Sterne
[2] = tested on: B. anthracis pathogenic strain (human isolate); test: microbe, parasite or virus in culture; type: cell-based; details: Bacillus anthracis, 16 h, read-out: MIC B. anthracis Pathogenic
[3] = tested on: B. anthracis ovine strain (animal isolate); test: microbe, parasite or virus in culture; type: cell-based; details: Bacillus anthracis, 16 h, read-out: MIC B. anthracis Ovine
E. faecalis (ATCC 29212) = test: microbe, parasite or virus in culture; type: cell-based; details: Enterococcus faecalis, ATCC29212, 16 h, read-out: MIC E. faecalis
B. cereus (ATCC 10876) = test: microbe, parasite or virus in culture; type: cell-based; details: Bacillus cereus, ATCC10876, 16 h, read-out: MIC B. cereus
B. cereus ATCC 14579 [4] = test: microbe, parasite or virus in culture; type: cell-based, Bacillus cereus
B. cereus ATCC 14579 [5] = test: microbe, parasite or virus in culture; type: cell-based, Bacillus cereus; remark: listed apart in the source
[6] = tested on: B. cereus ATCC 14579 strains resistant to known antibiotics; test: microbe, parasite or virus in culture; type: cell-based, Bacillus cereus; details: Bacillus cereus, ATCC14579
[7] = tested on: B. subtilis 168 and knockout mutants; test: microbe, parasite or virus in culture; type: cell-based; details: Bacillus subtilis
[8] = tested on: B. cereus ATCC 14579 mutant library; type: cell-based, Bacillus cereus
E. coli K12 = test: microbe, parasite or virus in culture; type: cell-based; details: Escherichia coli
E. coli K12 spheroplasts = test: microbe, parasite or virus in culture; type: cell-based, Escherichia coli; details: Escherichia coli
B. cereus ATCC 14579 [9] = test: microbe, parasite or virus in culture; type: cell-based; details: Bacillus cereus, ATCC14579
[10] = tested on: B. cereus ATCC 14579 protoplasts; test: microbe, parasite or virus in culture; type: cell-based; details: Bacillus cereus, ATCC14579
S. aureus ATCC 29213 = test: microbe, parasite or virus in culture; type: cell-based; details: Staphylococcus aureus, ATCC29213
[11] = tested on: S. aureus ATCC 29213 protoplasts; test: microbe, parasite or virus in culture; type: cell-based, Staphylococcus aureus; details: Staphylococcus aureus, ATCC29213
[12] = tested on: B. cereus ATCC 14579 spores and vegetative cells; test: microbe, parasite or virus in culture; type: cell-based; details: Bacillus cereus
[13] = POPE LUVs, compound 50 µM
[14] = POPC LUVs, compound 50 µM
in vitro = details: human
[15] = B. subtilis 168, parental isogenic strain
[16] = course of the experiment (14 h)

CCCCCCCCCCCCO[C@H]1C[C@H](O)[C@@H](O)[C@H](C)O1 [Compound 1]
MIC [1]: 25 µM (≈ 7.91 µg/mL) | MIC [2]: 25 µM (≈ 7.91 µg/mL) | MIC [3]: 25 µM (≈ 7.91 µg/mL) | MIC (E. faecalis (ATCC 29212)): 50 µM (≈ 15.8 µg/mL) | MIC (B. cereus (ATCC 10876)): 25 µM (≈ 7.91 µg/mL) | MBC (B. cereus ATCC 14579 [4]): 32 µg/mL (≈ 101 µM) | MBC (B. cereus ATCC 14579 [4]; Bacillus cereus, ATCC14579): 16 µg/mL (≈ 50.6 µM) | MIC (B. cereus ATCC 14579 [4]; Bacillus cereus, ATCC14579): 16 µg/mL (≈ 50.6 µM) | 1000-fold reduction (T99.9) (B. cereus ATCC 14579 [5]): ≤ 60 min | MBC (B. cereus ATCC 14579 [5]): 32 µg/mL (≈ 101 µM) | MBC (B. cereus ATCC 14579 [5]; Bacillus cereus, ATCC14579): 16 µg/mL (≈ 50.6 µM) | MBC [6]: 16 µg/mL (≈ 50.6 µM) | MIC [6]: 16 µg/mL (≈ 50.6 µM) | MBC [7, 15]: 32 µg/mL (≈ 101 µM) | MIC [7, 15]: 16 µg/mL (≈ 50.6 µM) | MBC ([7]; B. subtilis ΔexpZ): 32 µg/mL (≈ 101 µM) | MIC ([7]; B. subtilis ΔexpZ): 16 µg/mL (≈ 50.6 µM) | MBC ([7]; B. subtilis ΔmtlA): 32 µg/mL (≈ 101 µM) | MIC ([7]; B. subtilis ΔmtlA): 16 µg/mL (≈ 50.6 µM) | MBC ([7]; B. subtilis ΔtreP): 16 µg/mL (≈ 50.6 µM) | MIC ([7]; B. subtilis ΔtreP): 16 µg/mL (≈ 50.6 µM) | MBC ([7]; B. subtilis ΔybbF): 16 µg/mL (≈ 50.6 µM) | MIC ([7]; B. subtilis ΔybbF): 16 µg/mL (≈ 50.6 µM) | MBC ([7]; B. subtilis ΔybdA): 32 µg/mL (≈ 101 µM) | MIC ([7]; B. subtilis ΔybdA): 16 µg/mL (≈ 50.6 µM) | MBC ([7]; B. subtilis ΔybdB): 32 µg/mL (≈ 101 µM) | MIC ([7]; B. subtilis ΔybdB): 16 µg/mL (≈ 50.6 µM) | MBC ([7]; B. subtilis ΔydhO): 32 µg/mL (≈ 101 µM) | MIC ([7]; B. subtilis ΔydhO): 16 µg/mL (≈ 50.6 µM) | MBC ([7]; B. subtilis ΔyfiB): 32 µg/mL (≈ 101 µM) | MIC ([7]; B. subtilis ΔyfiB): 32 µg/mL (≈ 101 µM) | MBC ([7]; B. subtilis ΔyfiC): 16 µg/mL (≈ 50.6 µM) | MIC ([7]; B. subtilis ΔyfiC): 16 µg/mL (≈ 50.6 µM) | MBC ([7]; B. subtilis ΔyfiM): 16 µg/mL (≈ 50.6 µM) | MIC ([7]; B. subtilis ΔyfiM): 16 µg/mL (≈ 50.6 µM) | MBC ([7]; B. subtilis ΔyfiN): 32 µg/mL (≈ 101 µM) | MIC ([7]; B. subtilis ΔyfiN): 16 µg/mL (≈ 50.6 µM) | MBC ([7]; B. subtilis ΔyflF): 32 µg/mL (≈ 101 µM) | MIC ([7]; B. subtilis ΔyflF): 16 µg/mL (≈ 50.6 µM) | MBC ([7]; B. subtilis ΔyfmR): 16 µg/mL (≈ 50.6 µM) | MIC ([7]; B. subtilis ΔyfmR): 16 µg/mL (≈ 50.6 µM) | MBC ([7]; B. subtilis ΔygaD): 16 µg/mL (≈ 50.6 µM) | MIC ([7]; B. subtilis ΔygaD): 16 µg/mL (≈ 50.6 µM) | MBC ([7]; B. subtilis ΔyhaQ): 16 µg/mL (≈ 50.6 µM) | MIC ([7]; B. subtilis ΔyhaQ): 16 µg/mL (≈ 50.6 µM) | MBC ([7]; B. subtilis ΔyhcJ): 16 µg/mL (≈ 50.6 µM) | MIC ([7]; B. subtilis ΔyhcJ): 16 µg/mL (≈ 50.6 µM) | MBC ([7]; B. subtilis ΔyheH): 32 µg/mL (≈ 101 µM) | MIC ([7]; B. subtilis ΔyheH): 16 µg/mL (≈ 50.6 µM) | MBC ([7]; B. subtilis ΔyjdD): 16 µg/mL (≈ 50.6 µM) | MIC ([7]; B. subtilis ΔyjdD): 16 µg/mL (≈ 50.6 µM) | MBC ([7]; B. subtilis ΔykfD): 16 µg/mL (≈ 50.6 µM) | MIC ([7]; B. subtilis ΔykfD): 16 µg/mL (≈ 50.6 µM) | MBC ([7]; B. subtilis ΔyknU): 32 µg/mL (≈ 101 µM) | MIC ([7]; B. subtilis ΔyknU): 16 µg/mL (≈ 50.6 µM) | MBC ([7]; B. subtilis ΔykoD): 16 µg/mL (≈ 50.6 µM) | MIC ([7]; B. subtilis ΔykoD): 16 µg/mL (≈ 50.6 µM) | MBC ([7]; B. subtilis ΔykpA): 32 µg/mL (≈ 101 µM) | MIC ([7]; B. subtilis ΔykpA): 16 µg/mL (≈ 50.6 µM) | MBC ([7]; B. subtilis ΔyvcC): 32 µg/mL (≈ 101 µM) | MIC ([7]; B. subtilis ΔyvcC): 16 µg/mL (≈ 50.6 µM) | MBC ([7]; B. subtilis ΔywbA): 32 µg/mL (≈ 101 µM) | MIC ([7]; B. subtilis ΔywbA): 16 µg/mL (≈ 50.6 µM) | MBC ([7]; B. subtilis ΔywhQ): 32 µg/mL (≈ 101 µM) | MIC ([7]; B. subtilis ΔywhQ): 16 µg/mL (≈ 50.6 µM) | MBC ([7]; B. subtilis ΔyxdM): 32 µg/mL (≈ 101 µM) | MIC ([7]; B. subtilis ΔyxdM): 16 µg/mL (≈ 50.6 µM) | MBC ([7]; B. subtilis ΔyybL): 32 µg/mL (≈ 101 µM) | MIC ([7]; B. subtilis ΔyybL): 16 µg/mL (≈ 50.6 µM) | MIC of mutant library compared with the parental strain [8]: MIC values remain unchanged | MIC (E. coli K12): 256 µg/mL (≈ 809 µM) | MIC (E. coli K12 spheroplasts): 4 µg/mL (≈ 12.6 µM) | MIC (B. cereus ATCC 14579 [9]): 16 µg/mL (≈ 50.6 µM) | MIC [10]: 16 µg/mL (≈ 50.6 µM) | MIC (S. aureus ATCC 29213): 256 µg/mL (≈ 809 µM) | MIC [11]: 256 µg/mL (≈ 809 µM) | MBC ([12]; ATCC14579, 20 min): 8 µg/mL (≈ 25.3 µM) | MBC ([12]; ATCC14579, 0.5 h): 8 µg/mL (≈ 25.3 µM) | time of leakage, τL [13]: about 160 min | leakage of encapsulated carboxyfluorescein [13, 16]: ~ 100% | Lmax value obtained from the fit [14]: < 50% | time of leakage, τL [14]: about 692 min | total membrane leakage [14, 16]: ~ 30% | IC50 at 24 h (in vitro): 100 µM | IC50 at 48 h (in vitro): > 50 µM

— publication PMC6242839 (Nature Communications, 2018)
